Here are results for four compounds from ChEMBL document CHEMBL3580654, “Tetranorsesquiterpenoids and Santalane-Type Sesquiterpenoids from Illicium lanceolatum and Their Antimicrobial Activity against the Oral Pathogen Porphyromonas gingivalis” (J Nat Prod, 2015).

The subject of one test is Streptococcus oralis. Put plainly: Antibacterial activity against Streptococcus oralis SK23 assessed as effect on growth at 5 to 20 ug/ml after 24 hrs by microplate reader analysis. Particulars: ATCC 35037. The test is classed as functional.
Test [1] concerns Streptococcus parasanguinis. The experiment in a line: Antibacterial activity against […] ATCC 903 assessed as effect on growth at 5 to 20 ug/ml after 24 hrs by microplate reader analysis. The test is classed as functional.
For a further test, the system named is Streptococcus sobrinus. Put plainly: Antibacterial activity against Streptococcus sobrinus MT10186 assessed as effect on growth at 5 to 20 ug/ml after 24 hrs by microplate reader analysis. Format: functional, organism-based.
The test system of test [2] is Porphyromonas gingivalis. The experiment in a line: Antibacterial activity against Porphyromonas gingivalis ATCC 33277 assessed as growth inhibition at 5 to 20 ug/ml after 100 hrs by microplate reader analysis. Format: functional, organism-based.
Test [3] deals with Streptococcus mutans. The experiment in a line: Antibacterial activity against Streptococcus mutans MT8148 assessed as growth inhibition at 5 to 20 ug/ml after 24 hrs by microplate reader analysis. The test is classed as functional, organism-based.
Test [4] concerns Streptococcus mutans. Put plainly: Antibacterial activity against Streptococcus mutans MT8148 assessed as growth inhibition at 20 ug/ml after 24 hrs by microplate reader analysis. Format: functional, organism-based.
Test [5] concerns Porphyromonas gingivalis. Put plainly: Antibacterial activity against Porphyromonas gingivalis ATCC 33277 assessed as growth inhibition at 10 to 20 ug/ml after 100 hrs by microplate reader analysis. The test is classed as functional, organism-based.

The source made the active and inactive calls. The calls are words filed in the database; no cut-off is given here.

For `C=C[C@@]1(C)CC[C@]2(OC(=O)C=C2C)O1`, the outcome (in the test with Streptococcus oralis; in test [1]; with Streptococcus sobrinus) was inactive.
Regarding `CC(C)(O)/C=C/CC1(C)C2CC3C(C2)C31C` (stereo unspecified), the “growth inhibition (GI)” value in the test with Porphyromonas gingivalis [2] and in the test on Streptococcus mutans [3] was “inactive” in each case. In addition, the result (with Streptococcus oralis; in test [1]; in the test with Streptococcus sobrinus) was inactive.
Consider `C=C(C)C(=O)CCC1(C)C2CC3C(C2)C31C` (stereo unspecified), for which the outcome (in the test with Streptococcus oralis; in test [1]; with Streptococcus sobrinus) was inactive. For the same compound, the “growth inhibition (GI)” value with Streptococcus mutans [4] and in the test on Porphyromonas gingivalis [5] was “Active” each time.
For the compound `CC12CC(=O)O[C@H]3CC1CC[C@]32C`, the result (in the test with Streptococcus oralis; in test [1]; with Streptococcus sobrinus) was inactive.
